Reference: patent publication US20060148766A1 (priority 2002, published 2006)

Tested on: living body
Assay: Toxicity test
Details: in vivo

CN(C)c1ccc(O)c2c1C[C@H]1C[C@H]3[C@H](N(C)C)C(O)=C(C(N)=O)C(=O)[C@@]3(O)C(O)=C1C2=O [minocycline]
side effects on the living body: no particular side effects
